Experiments:
[1] = biological target: c-kit mutant D816V (Homo sapiens (Human), UniProt P10721, D816V/DEL694-753); test: c-Kit mutant D816V biochemical assay (AlphaScreen kinase activity)
In short: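 Recombinant His-tagged c-Kit D816V kinase domain (residues 551-934, insert 694-753 deleted, E. coli-expressed) phosphorylating 30 nM biotin-(E4Y)10 with 10 μM ATP, HEPES pH 7.2, Mg/Mn, 5% DMSO; 30 min, room temperature. Phosphorylation detected by AlphaScreen (streptavidin donor/PY30 acceptor beads); IC50 from 8-point 1:3 series.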

[2] = test system: BaF3-FL KIT D816V or BaF3-FL KIT V560G/D816V cell line; test: Cell-based assays of c-Kit mutant kinase activity (cell proliferation, ATPlite); conditions: at least one of the c-kit cell assays of Example 7
In short: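 BaF3 cells dependent on transfected full-length human KIT D816V or V560G/D816V (pCI-Neo, CMV promoter) were seeded at 1×10^4 cells/well and exposed to 8-point 1:3 dilutions from 10 μM top (0.2% DMSO) for three days at 37° C. ATPlite luminescence gave cell number; IC50 from concentration-response.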

Chain of c-kit mutant D816V (P10721 other isoform, or with tags, fused parts or gaps D816V/del 694-753): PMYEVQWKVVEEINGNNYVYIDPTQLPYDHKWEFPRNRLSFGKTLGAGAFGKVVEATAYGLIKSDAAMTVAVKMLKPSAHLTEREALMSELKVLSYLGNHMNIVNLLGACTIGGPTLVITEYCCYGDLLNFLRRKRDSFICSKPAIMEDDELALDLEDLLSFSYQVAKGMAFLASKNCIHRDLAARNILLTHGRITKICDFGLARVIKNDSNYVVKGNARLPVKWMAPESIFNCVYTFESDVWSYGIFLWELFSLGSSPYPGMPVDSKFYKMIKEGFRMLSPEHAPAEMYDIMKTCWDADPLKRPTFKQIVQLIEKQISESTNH

Row | SMILES | IC50 [1] [µM] | IC50 [2] [µM]
1 | COc1ccc(-c2[nH]c(C3(C)CCN(c4ncnc5[nH]c(-c6cnn(C(F)F)c6)cc45)CC3)nc2C)cc1 [P-3153, 6-[1-(difluoromethyl)pyrazol-4-yl]-4-[4-[5-(4-methoxyphenyl)-4-methyl-1H-imidazol-2-yl]-4-methyl-1-piperidyl]-7H-pyrrolo[2,3-d]pyrimidine] | 0.0001 to 1 | < 10
2 | COc1ccc(-c2[nH]c(C3(C)CCN(c4ncnc5[nH]c(-c6cnn(C(F)F)c6)cc45)CC3)nc2C)cc1C [P-3154, 6-[1-(difluoromethyl)pyrazol-4-yl]-4-[4-[5-(4-methoxy-3-methyl-phenyl)-4-methyl-1H-imidazol-2-yl]-4-methyl-1-piperidyl]-7H-pyrrolo[2,3-d]pyrimidine] | 0.0001 to 1 | < 10
3 | Cc1nc(C2(C)CCN(c3ncnc4[nH]c(-c5cnn(C(F)F)c5)cc34)CC2)[nH]c1-c1ccc2c(c1)OCO2 [P-3155, 4-[4-[5-(1,3-benzodioxol-5-yl)-4-methyl-1H-imidazol-2-yl]-4-methyl-1-piperidyl]-6-[1-(difluoromethyl)pyrazol-4-yl]-7H-pyrrolo[2,3-d]pyrimidine] | 0.0001 to 1 | < 10
4 | COc1ccc(-c2[nH]c(C3(C)CCN(c4ncnc5[nH]c(-c6ccc(OC)nc6)cc45)CC3)nc2C)cc1 [P-3156, 4-[4-[5-(4-methoxyphenyl)-4-methyl-1H-imidazol-2-yl]-4-methyl-1-piperidyl]-6-(6-methoxy-3-pyridyl)-7H-pyrrolo[2,3-d]pyrimidine] | 0.0001 to 1 | < 10
5 | COc1ccc(-c2cc3c(N4CCC(C)(c5nc(C)c(-c6ccc(OC)c(C)c6)[nH]5)CC4)ncnc3[nH]2)cn1 [P-3157, 4-[4-[5-(4-methoxy-3-methyl-phenyl)-4-methyl-1H-imidazol-2-yl]-4-methyl-1-piperidyl]-6-(6-methoxy-3-pyridyl)-7H-pyrrolo[2,3-d]pyrimidine] | 0.0001 to 1 | < 10
6 | COc1ccc(-c2cc3c(N4CCC(C)(c5nc(C)c(-c6ccc7c(c6)OCO7)[nH]5)CC4)ncnc3[nH]2)cn1 [P-3158, 4-[4-[5-(1,3-benzodioxol-5-yl)-4-methyl-1H-imidazol-2-yl]-4-methyl-1-piperidyl]-6-(6-methoxy-3-pyridyl)-7H-pyrrolo[2,3-d]pyrimidine] | 0.0001 to 1 | < 10
7 | Cc1nc(C2(C)CCN(c3ncnc4[nH]c(-c5ccc(C#N)cc5)cc34)CC2)[nH]c1-c1ccc2c(c1)OCO2 [P-3159, 4-[4-[4-[5-(1,3-benzodioxol-5-yl)-4-methyl-1H-imidazol-2-yl]-4-methyl-1-piperidyl]-7H-pyrrolo[2,3-d]pyrimidin-6-yl]benzonitrile] | 0.0001 to 1 | < 10
8 | CCOc1ccc(-c2[nH]c(C3(C)CCN(c4ncnc5[nH]c(-c6ccc(C#N)cc6)cc45)CC3)nc2C)cc1C [P-3160, 4-[4-[4-[5-(4-ethoxy-3-methyl-phenyl)-4-methyl-1H-imidazol-2-yl]-4-methyl-1-piperidyl]-7H-pyrrolo[2,3-d]pyrimidin-6-yl]benzonitrile] | 0.0001 to 1 | < 10
9 | CCOc1ccc(-c2[nH]c(C3(C)CCN(c4ncnc5[nH]c(-c6ccc(C#N)cc6)cc45)CC3)nc2C)cc1 [P-3161, 4-[4-[4-[5-(4-ethoxyphenyl)-4-methyl-1H-imidazol-2-yl]-4-methyl-1-piperidyl]-7H-pyrrolo[2,3-d]pyrimidin-6-yl]benzonitrile] | 0.0001 to 1 | < 10
10 | Cc1nc(C2CCN(c3ncnc4[nH]c(-c5ccc(C#N)cc5)cc34)CC2)[nH]c1-c1ccc(C(F)F)cc1 [P-3162, 4-[4-[4-[5-[4-(difluoromethyl)phenyl]-4-methyl-1H-imidazol-2-yl]-1-piperidyl]-7H-pyrrolo[2,3-d]pyrimidin-6-yl]benzonitrile] | 0.0001 to 1 | < 10
11 | COc1ccc(-c2[nH]c(C3(C)CCN(c4ncnc5[nH]c(-c6ccc(C#N)cc6)cc45)CC3)nc2C)cc1F [P-3163, 4-[4-[4-[5-(3-fluoro-4-methoxy-phenyl)-4-methyl-1H-imidazol-2-yl]-4-methyl-1-piperidyl]-7H-pyrrolo[2,3-d]pyrimidin-6-yl]benzonitrile] | 0.0001 to 1 | < 10
12 | Cc1nc(C2(C)CCN(c3ncnc4[nH]c(-c5ccc(C#N)cc5)cc34)CC2)[nH]c1-c1ccc(C(F)F)cc1 [P-3164, 4-[4-[4-[5-[4-(difluoromethyl)phenyl]-4-methyl-1H-imidazol-2-yl]-4-methyl-1-piperidyl]-7H-pyrrolo[2,3-d]pyrimidin-6-yl]benzonitrile] | 0.0001 to 1 | < 10
13 | Cc1cc2c(N3CCC(C)(c4nc(C)c(-c5ccc(C(F)(F)F)cc5)[nH]4)CC3)ncnc2[nH]1 [P-3165, 6-methyl-4-[4-methyl-4-[4-methyl-5-[4-(trifluoromethyl)phenyl]-1H-imidazol-2-yl]-1-piperidyl]-7H-pyrrolo[2,3-d]pyrimidine] | 0.0001 to 1 | < 10
14 | COc1cccc(-c2[nH]c(C3(C)CCN(c4ncnc5[nH]c(C)cc45)CC3)nc2C)c1 [P-3166, 4-[4-[5-(3-methoxyphenyl)-4-methyl-1H-imidazol-2-yl]-4-methyl-1-piperidyl]-6-methyl-7H-pyrrolo[2,3-d]pyrimidine] | 0.0001 to 1 | < 10
15 | COc1cccc(-c2[nH]c(C3(C)CCN(c4ncnc5[nH]c(-c6ccc(C#N)cc6)cc45)CC3)nc2C)c1 [P-3167, 4-[4-[4-[5-(3-methoxyphenyl)-4-methyl-1H-imidazol-2-yl]-4-methyl-1-piperidyl]-7H-pyrrolo[2,3-d]pyrimidin-6-yl]benzonitrile] | 0.0001 to 1 | < 10
16 | COc1cccc(-c2[nH]c(C3(C)CCN(c4ncnc5[nH]c(-c6cnn(C(F)F)c6)cc45)CC3)nc2C)c1 [P-3168, 6-[1-(difluoromethyl)pyrazol-4-yl]-4-[4-[5-(3-methoxyphenyl)-4-methyl-1H-imidazol-2-yl]-4-methyl-1-piperidyl]-7H-pyrrolo[2,3-d]pyrimidine] | 0.0001 to 1 | < 10
17 | COc1cccc(-c2[nH]c(C3(C)CCN(c4ncnc5[nH]c(-c6ccc(OC)nc6)cc45)CC3)nc2C)c1 [P-3169, 4-[4-[5-(3-methoxyphenyl)-4-methyl-1H-imidazol-2-yl]-4-methyl-1-piperidyl]-6-(6-methoxy-3-pyridyl)-7H-pyrrolo[2,3-d]pyrimidine] | 0.0001 to 1 | < 10
18 | CCOc1ccc(-c2[nH]c(C3(C)CCN(c4ncnc5[nH]c(-c6cnn(C(F)F)c6)cc45)CC3)nc2C)cc1 [P-3170, 6-[1-(difluoromethyl)pyrazol-4-yl]-4-[4-[5-(4-ethoxyphenyl)-4-methyl-1H-imidazol-2-yl]-4-methyl-1-piperidyl]-7H-pyrrolo[2,3-d]pyrimidine] | 0.0001 to 1 | < 10
19 | Fc1ccc(-c2cc3c(N4CCC(c5nnc(-c6cccc(OC(F)F)c6)[nH]5)CC4)ncnc3[nH]2)cc1 [P-3204, 4-[4-[5-[3-(difluoromethoxy)phenyl]-4H-1,2,4-triazol-3-yl]-1-piperidyl]-6-(4-fluorophenyl)-7H-pyrrolo[2,3-d]pyrimidine] | 0.0001 to 1 | < 10
20 | COc1cc(-c2cc3c(N4CCC(c5nnc(-c6ccc(F)cc6)[nH]5)CC4)ncnc3[nH]2)ccn1 [P-3205, 4-[4-[5-(4-fluorophenyl)-4H-1,2,4-triazol-3-yl]-1-piperidyl]-6-(2-methoxy-4-pyridyl)-7H-pyrrolo[2,3-d]pyrimidine] | 1 to 10 | < 10
